Patent publication US4916065A (priority 1988, dated 1990)
In brackets after ≈: the same amount, converted by molar mass.

Key:
[1] = test system: Cryptococcus neoformans D49; assay: Antifungal MIC, Sabouraud dextrose agar; assay type: cell-based
[2] = test system: Cryptococcus neoformans IAM4514; assay: Antifungal MIC, Sabouraud dextrose agar; assay type: cell-based
[3] = test system: Aspergillus flavus FA21436; assay: Antifungal MIC, Sabouraud dextrose agar; assay type: cell-based
[4] = test system: Fusarium moniliforme A2284; assay: Antifungal MIC, Sabouraud dextrose agar; assay type: cell-based; settings: Fusarium verticillioides
Piricularia oryzae D91 = assay: microbe, parasite or virus in culture; assay type: cell-based
[5] = test system: Trichophyton mentagrophytes #4329; assay: Antifungal MIC, Sabouraud dextrose agar; assay type: cell-based
[6] = test system: Petriellidium boydii IF08073; assay: Antifungal MIC, Sabouraud dextrose agar; assay type: cell-based; settings: Scedosporium boydii
Mucor spinosus IF05317 = assay: Antifungal MIC, Sabouraud dextrose agar; assay type: cell-based
[7] = test system: Clostridium difficile A21675; assay: Antibacterial MIC, serial agar dilution; assay type: cell-based; settings: Clostridioides difficile, anaerobic, GAM agar, clindamycin-resistant
[8] = test system: Clostridium perfringens A9635; assay: microbe, parasite or virus in culture; assay type: cell-based
[9] = test system: Propionibacterium acnes A21933; assay: Antibacterial MIC, serial agar dilution; assay type: cell-based; settings: Cutibacterium acnes, anaerobic, GAM agar
[10] = test system: Peptostreptococcus anaerobius A21905; assay: Antibacterial MIC, serial agar dilution; assay type: cell-based; settings: anaerobic, GAM agar, read-out: MIC
[11] = test system: Bacteroides fragilis A22693; assay: Antibacterial MIC, serial agar dilution; assay type: cell-based; settings: anaerobic, GAM agar
[12] = test system: Bacteroides fragilis A22534; assay: Antibacterial MIC, serial agar dilution; assay type: cell-based; settings: anaerobic, GAM agar, ampicillin-resistant, read-out: MIC
B16-F10 = assay: In vitro cytotoxicity; assay type: cell-based, murine; settings: Mus musculus, 72 hours, neutral red, 540 nm
Moser = assay: In vitro cytotoxicity; assay type: cell-based; settings: Homo sapiens; 72 hours, neutral red, 540 nm
HCT-116 = assay: In vitro cytotoxicity; assay type: cell-based; settings: Homo sapiens, 72 hours, neutral red, 540 nm
[13] = test system: DNA synthesis in L1210 cells; assay: Inhibition of macromolecule synthesis in L1210 leukemia; assay type: cell-based; settings: Mus musculus; 3H-thymidine, L1210, 15 min + 60 min, 37° C.
[14] = test system: RNA synthesis in L1210 cells; assay: as above; assay type: cell-based; settings: Mus musculus; 14C-uridine, L1210, 15 min + 60 min, 37° C.
[15] = test system: Protein synthesis in L1210 cells; assay: as above; assay type: cell-based; settings: Mus musculus; 3H-leucine, L1210, 15 min + 60 min, 37° C.

## C[C@@H]1[C@H](O)[C@@H](C)/C=C/C=C/C=C/C=C/C=C/C=C/C=C/[C@H](O[C@@H]2O[C@H](C)[C@@H](O)[C@H](N)[C@@H]2O)C[C@@H]2O[C@](O)(C[C@@H](O)C[C@@H](O)[C@H](O)CC[C@@H](O)C[C@@H](O)CC(=O)O[C@H]1C)C[C@H](O)[C@H]2C(=O)O [Amphotericin B, reference compound]
[1]
  MIC: < 0.2 µg/mL
[2]
  MIC: < 0.2 µg/mL
[3]
  MIC: 3.1 µg/mL (≈ 3.35 µM)
[4]
  MIC: 12.5 µg/mL (≈ 13.5 µM)
Piricularia oryzae D91
  MIC: 3.1 µg/mL (≈ 3.35 µM)
[5]
  MIC: 3.1 µg/mL (≈ 3.35 µM)
[6]
  MIC: > 100 µg/mL
Mucor spinosus IF05317
  MIC: 0.8 µg/mL (≈ 0.866 µM)

## CCC[C@@H]1C[C@@H](C(=O)N[C@@H]([C@H]2O[C@H](SC)[C@H](O)[C@@H](O)[C@H]2O)[C@H](C)Cl)N(C)C1 [Clindamycin, reference compound]
[7]
  MIC: > 100 µg/mL
[8]
  MIC: 0.025 µg/mL (≈ 0.0588 µM)
[9]
  MIC: 0.4 µg/mL (≈ 0.941 µM)
[10]
  MIC: 0.4 µg/mL (≈ 0.941 µM)
[11]
  MIC: 0.05 µg/mL (≈ 0.118 µM)
[12]
  MIC: 0.8 µg/mL (≈ 1.88 µM)

## CO[C@@]12[C@H](COC(N)=O)C3=C(C(=O)C(C)=C(N)C3=O)N1C[C@@H]1N[C@@H]12 [Mitomycin C, reference compound]
B16-F10
  IC50: 0.5 µg/mL (≈ 1.5 µM)
Moser
  IC50: 1.2 µg/mL (≈ 3.59 µM)
HCT-116
  IC50: 0.8 µg/mL (≈ 2.39 µM)
[13]
  IC50: 1.7 µg/mL
[14]
  IC50: > 100 µg/mL
[15]
  IC50: > 100 µg/mL
